For assay [1], the target named is T1, human amylin receptor (Homo sapiens, UniProt O60896+P30988).
T1 construct: expressed in transfected cells
T1 sequence (P30988 25-474): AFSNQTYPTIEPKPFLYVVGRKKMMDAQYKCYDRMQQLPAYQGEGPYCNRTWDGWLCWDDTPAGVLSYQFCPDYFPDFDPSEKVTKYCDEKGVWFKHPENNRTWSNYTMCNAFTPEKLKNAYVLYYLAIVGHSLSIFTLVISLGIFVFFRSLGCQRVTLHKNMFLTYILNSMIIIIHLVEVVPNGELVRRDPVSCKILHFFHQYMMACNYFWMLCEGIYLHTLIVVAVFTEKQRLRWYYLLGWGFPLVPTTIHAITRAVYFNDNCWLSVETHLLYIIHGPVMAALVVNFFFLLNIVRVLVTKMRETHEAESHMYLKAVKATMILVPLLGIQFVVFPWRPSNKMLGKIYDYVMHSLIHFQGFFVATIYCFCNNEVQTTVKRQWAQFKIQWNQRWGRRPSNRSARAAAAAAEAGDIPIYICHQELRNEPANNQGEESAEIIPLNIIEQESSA
T1 sequence (O60896 24-148 partner): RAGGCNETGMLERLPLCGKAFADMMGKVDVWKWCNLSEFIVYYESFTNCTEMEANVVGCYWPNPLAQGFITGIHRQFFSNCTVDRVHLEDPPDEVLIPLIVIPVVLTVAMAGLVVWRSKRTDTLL
The assay can be described thus: Assay (V) binding to the human amylin receptor (SPA, 125I-rat amylin). The following applies: for IC50: human amylin receptor membranes, SPA, read-out: hAmylin-R bind IC50. Summed up: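 IC50, taken as receptor affinity, came from one-site binding competition analysis of scintillation proximity counts. Amylin 3(a)/CRE-luc cell membranes (35 ng/μL final) were mixed with SPA beads (0.05 mg/well) in 50 mM Hepes pH 7.4 containing CaCl2, MgCl2, 0.1% OA and 0.02% Tween20.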

The target of assay [2] is T2, human calcitonin receptor (Homo sapiens, UniProt P30988).
T2 construct: expressed in transfected cells
T2 sequence (P30988 25-474): T1 sequence (P30988 25-474)
Put plainly: Assay (VII) binding to the human calcitonin receptor (SPA, 125I-Calcitonin).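 Further: cell membranes coupled to SPA beads, competitive displacement read by scintillation counting, IC50 derived from a one-site competition fit as a measure of receptor affinity.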 As to conditions: read-out: hCTR bind IC50.

Assay [3] has as its target T3, human amylin receptor (amylin 3(a) receptor: human calcitonin receptor + RAMP-3) (Homo sapiens, UniProt O60896+P30988).
T3 construct: expressed in transfected cells
T3 sequence (P30988 25-474): T1 sequence (P30988 25-474)
T3 sequence (O60896 24-148 partner): T1 sequence (O60896 24-148 partner)
Put plainly: Assay (II)a functional assay, human amylin receptor (CRE luciferase, BHK cells). Type of assay: cell-based. The following applies: for EC50: read-out: hAmylin-R funct. EC50.

Assay [4] concerns the target T2, human calcitonin receptor. Put plainly: Assay (II)a functional assay, human calcitonin receptor (CRE luciferase, BHK cells).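 Further: luminescence from a CRE-driven luciferase reporter, read by single photon counting after cells were exposed to test samples for 3 h at 37 °C under 5% CO2.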 Type of assay: cell-based. As to conditions: read-out: hCTR funct. EC50.
[5] abbreviates: Table 6, human functional selectivity (hCTR EC50 / hAmylin-R EC50).
[6] abbreviates: Table 6a, human functional selectivity (hCTR EC50 / hAmylin-R EC50), at least 5.
Setting [7] is: Table 6j, hCTR funct. EC50 / hAmylin-R funct. EC50.
The mark [8] stands for this setting: Table 6k, hCTR funct. EC50 / hAmylin-R funct. EC50.
[9] abbreviates: functional assay, human amylin receptor.
The mark [10] stands for this setting: human binding ratio, included for comparison.
Setting [11] is: Table 7b, human calcitonin receptor binding IC50 divided by human amylin receptor binding IC50.

Molecules are shown by their SMILES. Where two headings read alike, the source gives them in different places. Numbered stars: 1 amine (or outer) side, 2 acyl side, 3 side chain; on linkers, the order of the positions; unused ones are H or OH. Bridge positions count the residues as written; N and C are the ends. Side chains are listed from the residue outwards. Peptide text beside a SMILES is read from it. * marks the point of attachment. C20 diacid = O=C(O)CCCCCCCCCCCCCCCCCCC(=O)*; γGlu = O=C(O)[C@H](CCC(=O)[*:2])N[*:1]

Broadly, the IC50 is the midpoint of a concentration-inhibition curve. As usually defined, the EC50 is the concentration that produces a half-maximal response.

As for `CC[C@H](C)[C@H](NC(=O)[C@H](C)NC(=O)CNC(=O)[C@H](Cc1ccccc1)NC(=O)[C@H](CC(N)=O)NC(=O)[C@@H]1CCCN1C(=O)[C@H](CO)NC(=O)[C@H](CO)NC(=O)[C@H](Cc1c[nH]cn1)NC(=O)[C@H](CCCNC(=N)N)NC(=O)[C@H](CC(C)C)NC(=O)[C@H](Cc1ccccc1)NC(=O)[C@H](CC(=O)O)NC(=O)[C@H](C)NC(=O)[C@H](CC(C)C)NC(=O)[C@H](CCCNC(=N)N)NC(=O)[C@H](CCC(N)=O)NC(=O)[C@@H](NC(=O)[C@H](C)NC(=O)[C@@H]1CSSC[C@H](NC(=O)[C@@H](N)CCCCNC(=O)CC[C@H](NC(=O)CC[C@H](NC(=O)CCCCCCCCCCCCCCCCCCC(=O)O)C(=O)O)C(=O)O)C(=O)N[C@@H](CC(N)=O)C(=O)N[C@@H]([C@@H](C)O)C(=O)N[C@@H](C)C(=O)N[C@@H]([C@@H](C)O)C(=O)N1)[C@@H](C)O)C(=O)N1CCC[C@H]1C(=O)N[C@@H](CO)C(=O)N[C@@H](CO)C(=O)N[C@H](C(=O)N[C@@H](CC(N)=O)C(=O)N[C@H](C(=O)NCC(=O)N1CCC[C@H]1C(=O)N[C@@H](CCC(=O)O)C(=O)N[C@H](C(=O)N[C@@H](Cc1ccc(O)cc1)C(N)=O)[C@@H](C)O)C(C)C)[C@@H](C)O` [Example 122] (H-K([γGlu-γGlu-C20 diacid])CNTATCATQRLADFLRHSSPNFGAIPSSTNVGPETY-NH2; disulfide 2-7), the IC50 in assay [1] is 0.172 nM; in assay [2] it was 8.56 nM. The “Ratio hCT/hAmylin funct.” value in assay [3] (setting [5]), in assay [3] (setting [6]), in assay [3] (setting [7]) and in assay [3] (setting [8]) was 5.3 each time. Moreover, the EC50 in assay [3] (setting [9]) came out at 0.159 nM; in assay [4], 0.843 nM.

Regarding `CC[C@H](C)[C@H](NC(=O)[C@H](C)NC(=O)CNC(=O)[C@H](Cc1ccccc1)NC(=O)[C@H](CC(N)=O)NC(=O)[C@@H]1CCCN1C(=O)[C@H](CO)NC(=O)[C@H](CO)NC(=O)[C@H](Cc1c[nH]cn1)NC(=O)[C@H](CCCNC(=N)N)NC(=O)[C@H](CC(C)C)NC(=O)[C@H](Cc1ccccc1)NC(=O)[C@H](CCC(=O)O)NC(=O)[C@H](C)NC(=O)[C@H](CC(C)C)NC(=O)[C@H](CCCNC(=N)N)NC(=O)[C@H](CCC(N)=O)NC(=O)[C@@H](NC(=O)[C@H](C)NC(=O)[C@@H]1CSSC[C@H](NC(=O)[C@@H](N)CCCCNC(=O)CC[C@H](NC(=O)CC[C@H](NC(=O)CCCCCCCCCCCCCCCCCCC(=O)O)C(=O)O)C(=O)O)C(=O)N[C@@H](CC(N)=O)C(=O)N[C@@H]([C@@H](C)O)C(=O)N[C@@H](C)C(=O)N[C@@H]([C@@H](C)O)C(=O)N1)[C@@H](C)O)C(=O)N1CCC[C@H]1C(=O)N[C@@H](CO)C(=O)N[C@@H](CO)C(=O)N[C@H](C(=O)N[C@@H](CC(N)=O)C(=O)N[C@H](C(=O)NCC(=O)N1CCC[C@H]1C(=O)N[C@@H](CCC(=O)O)C(=O)N[C@H](C(=O)N1CCC[C@H]1C(N)=O)[C@@H](C)O)C(C)C)[C@@H](C)O` [Example 125] (H-K([γGlu-γGlu-C20 diacid])CNTATCATQRLAEFLRHSSPNFGAIPSSTNVGPETP-NH2; disulfide 2-7), the figures for the IC50 in assay [1] and in assay [2] were 0.533 nM and 0.226 nM, respectively. Further, in assay [1] (setting [10]), the “Ratio hCT/hAmylin binding” value is on record as 0.4. Moreover, in assay [3] (setting [5]), the “Ratio hCT/hAmylin funct.” value turned out to be 0.8. Also, the EC50 in assay [3] (setting [9]) was determined as 0.132 nM; in assay [4] it was 0.102 nM.

`CC[C@H](C)[C@H](NC(=O)[C@H](C)NC(=O)CNC(=O)[C@H](Cc1ccccc1)NC(=O)[C@H](CC(N)=O)NC(=O)[C@@H]1CCCN1C(=O)[C@H](CO)NC(=O)[C@H](CO)NC(=O)[C@H](Cc1c[nH]cn1)NC(=O)[C@H](CCCNC(=N)N)NC(=O)[C@H](CC(C)C)NC(=O)[C@H](Cc1ccccc1)NC(=O)[C@H](CCC(=O)O)NC(=O)[C@H](C)NC(=O)[C@H](CC(C)C)NC(=O)[C@H](CCCNC(=N)N)NC(=O)[C@H](CCC(N)=O)NC(=O)[C@@H](NC(=O)[C@H](C)NC(=O)[C@@H]1CSSC[C@H](NC(=O)[C@@H](N)CCCCNC(=O)CC[C@H](NC(=O)CC[C@H](NC(=O)CCCCCCCCCCCCCCCCCCC(=O)O)C(=O)O)C(=O)O)C(=O)N[C@@H](CC(N)=O)C(=O)N[C@@H]([C@@H](C)O)C(=O)N[C@@H](C)C(=O)N[C@@H]([C@@H](C)O)C(=O)N1)[C@@H](C)O)C(=O)N1CCC[C@H]1C(=O)N[C@@H](CO)C(=O)N[C@@H](CO)C(=O)N[C@H](C(=O)N[C@@H](CC(N)=O)C(=O)N[C@H](C(=O)NCC(=O)N1CCC[C@H]1C(=O)N[C@@H](CC(N)=O)C(=O)N[C@H](C(=O)N[C@@H](Cc1ccccc1)C(N)=O)[C@@H](C)O)C(C)C)[C@@H](C)O` [Example 127] (H-K([γGlu-γGlu-C20 diacid])CNTATCATQRLAEFLRHSSPNFGAIPSSTNVGPNTF-NH2; disulfide 2-7): the “Ratio hCT/hAmylin binding” value in assay [1] (setting [11]) and in assay [1] (setting [10]) was 18.0 throughout. For the same compound, the IC50 stood at 0.152 nM in assay [1] and 2.73 nM in assay [2]. Moreover, the “Ratio hCT/hAmylin funct.” value is recorded as 9.9 in assay [3] (setting [5]); 9.9 in assay [3] (setting [6]); 9.9 in assay [3] (Table 6i, hCTR funct. EC50 / hAmylin-R funct. EC50); 9.9 in assay [3] (setting [7]); 9.9 in assay [3] (setting [8]). In addition, the half-maximal effective concentration (EC50) in assay [3] (Table 6i, human amylin receptor functional) worked out at 0.216 nM; in assay [4], 2.14 nM.

In the case of `CC[C@H](C)[C@H](NC(=O)[C@H](C)NC(=O)CNC(=O)[C@H](Cc1ccccc1)NC(=O)[C@H](CC(N)=O)NC(=O)[C@@H]1CCCN1C(=O)[C@H](CO)NC(=O)[C@H](CO)NC(=O)[C@H](Cc1c[nH]cn1)NC(=O)[C@H](CCCNC(=N)N)NC(=O)[C@H](CC(C)C)NC(=O)[C@H](Cc1ccccc1)NC(=O)[C@H](CCC(=O)O)NC(=O)[C@H](C)NC(=O)[C@H](CC(C)C)NC(=O)[C@H](CCCNC(=N)N)NC(=O)[C@H](CCC(N)=O)NC(=O)[C@@H](NC(=O)[C@H](C)NC(=O)[C@@H]1CSSC[C@H](NC(=O)[C@@H](N)CCCCNC(=O)CC[C@H](NC(=O)CCCCCCCCCCCCCCCCCCC(=O)O)C(=O)O)C(=O)N[C@@H](CC(N)=O)C(=O)N[C@@H]([C@@H](C)O)C(=O)N[C@@H](C)C(=O)N[C@@H]([C@@H](C)O)C(=O)N1)[C@@H](C)O)C(=O)N1CCC[C@H]1C(=O)N[C@@H](CO)C(=O)N[C@@H](CO)C(=O)N[C@H](C(=O)N[C@@H](CC(N)=O)C(=O)N[C@H](C(=O)NCC(=O)N[C@@H](CO)C(=O)N[C@@H](Cc1c[nH]cn1)C(=O)N[C@H](C(=O)N[C@@H](Cc1ccc(O)cc1)C(N)=O)[C@@H](C)O)C(C)C)[C@@H](C)O` [Example 128] (H-K([γGlu-C20 diacid])CNTATCATQRLAEFLRHSSPNFGAIPSSTNVGSHTY-NH2; disulfide 2-7), the IC50 in assay [1] was determined as 0.992 nM; in assay [2], 26.1 nM. In addition, the EC50 amounted to 0.425 nM in assay [3] (setting [9]) and 5.58 nM in assay [4].

With `CC[C@H](C)[C@H](NC(=O)[C@H](C)NC(=O)CNC(=O)[C@H](Cc1ccccc1)NC(=O)[C@H](CC(N)=O)NC(=O)[C@@H]1CCCN1C(=O)[C@H](CO)NC(=O)[C@H](CO)NC(=O)[C@H](Cc1c[nH]cn1)NC(=O)[C@H](CCCNC(=N)N)NC(=O)[C@H](CC(C)C)NC(=O)[C@H](Cc1ccccc1)NC(=O)[C@H](CC(=O)O)NC(=O)[C@H](C)NC(=O)[C@H](CC(C)C)NC(=O)[C@H](CCCNC(=N)N)NC(=O)[C@H](CCC(N)=O)NC(=O)[C@@H](NC(=O)[C@H](C)NC(=O)[C@@H]1CSSC[C@H](NC(=O)[C@@H](N)CCCCNC(=O)CC[C@H](NC(=O)CC[C@H](NC(=O)CCCCCCCCCCCCCCCCCCC(=O)O)C(=O)O)C(=O)O)C(=O)N[C@@H](CC(N)=O)C(=O)N[C@@H]([C@@H](C)O)C(=O)N[C@@H](C)C(=O)N[C@@H]([C@@H](C)O)C(=O)N1)[C@@H](C)O)C(=O)N1CCC[C@H]1C(=O)N[C@@H](CO)C(=O)N[C@@H](CO)C(=O)N[C@H](C(=O)N[C@@H](CC(N)=O)C(=O)N[C@H](C(=O)NCC(=O)N1CCC[C@H]1C(=O)N[C@@H](CCCNC(=N)N)C(=O)N[C@H](C(=O)N[C@@H](Cc1ccc(O)cc1)C(N)=O)[C@@H](C)O)C(C)C)[C@@H](C)O` [Example 130] (H-K([γGlu-γGlu-C20 diacid])CNTATCATQRLADFLRHSSPNFGAIPSSTNVGPRTY-NH2; disulfide 2-7), the “Ratio hCT/hAmylin binding” value is 280.0 in assay [1] (setting [11]); 280.0 in assay [1] (Table 7c, human calcitonin receptor binding IC50 divided by human amylin receptor binding IC50); 280.0 in assay [1] (setting [10]). Besides, the IC50 is 0.453 nM in assay [1] and 127 nM in assay [2]. Further, the values for the EC50 in assay [3] (setting [9]) and in assay [4] were 0.162 nM and 7.28 nM, respectively.

Values taken from patent publication US8575091B1, “Amylin analogues and pharmaceutical compositions thereof” (Novo Nordisk A/S, priority 2012, dated 2013).
